What was measured:
BRD4 = test: REDS reporter cell line, RFP expression (Redness) on BRD4 inhibition; type: cell-based, human
Description: Live cell imaging pictures were taken from cells seeded on clear flat bottom 96-well or 384-well plates (Corning), with the Operetta High Content Screening System (PerkinElmer), 20× objective and non-confocal mode. RFP quantification was done using the basic PerkinElmer software for nuclei detection and analysis, adapted for the nucleus diameter range of the specific cell line used (KBM7, 13 μm). Only RFP positive nuclei were detected and counted.
(§1) The prerequisite for effective GT genetic screens is a haploid system where monoallelic disruptive GT integration results in gene knock-out (KO). Therefore, KBM7 cells, a chronic myeloid leukemia cell line with near haploid karyotype, were chosen for the generation of the BRD4 reporter cell lines as previously described^15. […] Propidium iodide (PI) incorporation and FACS analysis were used to assay the cell cycle profile of several REDS clones in order to select a haploid clone suitable for GT-based genetic screen.
The suitability of the REDS1 clone for a GT-based genetic screen was then further validated.

BRD4-MTHFD1 interaction = target: T1, BRD4-MTHFD1 interaction (Homo sapiens, UniProt O60885+P11586); test: MTHFD1 pull-down on HAP1 whole cell lysates (BRD4-MTHFD1 interaction); type: binding; settings: HAP1 whole cell lysates treated with 50 μM (FIG. 9I)
T1 construct: MTHFD1 pull-down performed on HAP1 whole cell lysates treated with 50 μM (S)-JQ1, MTX; endogenous in cells; host or cells: HAP1
T1 sequence (P11586 whole entry, other chains not shown): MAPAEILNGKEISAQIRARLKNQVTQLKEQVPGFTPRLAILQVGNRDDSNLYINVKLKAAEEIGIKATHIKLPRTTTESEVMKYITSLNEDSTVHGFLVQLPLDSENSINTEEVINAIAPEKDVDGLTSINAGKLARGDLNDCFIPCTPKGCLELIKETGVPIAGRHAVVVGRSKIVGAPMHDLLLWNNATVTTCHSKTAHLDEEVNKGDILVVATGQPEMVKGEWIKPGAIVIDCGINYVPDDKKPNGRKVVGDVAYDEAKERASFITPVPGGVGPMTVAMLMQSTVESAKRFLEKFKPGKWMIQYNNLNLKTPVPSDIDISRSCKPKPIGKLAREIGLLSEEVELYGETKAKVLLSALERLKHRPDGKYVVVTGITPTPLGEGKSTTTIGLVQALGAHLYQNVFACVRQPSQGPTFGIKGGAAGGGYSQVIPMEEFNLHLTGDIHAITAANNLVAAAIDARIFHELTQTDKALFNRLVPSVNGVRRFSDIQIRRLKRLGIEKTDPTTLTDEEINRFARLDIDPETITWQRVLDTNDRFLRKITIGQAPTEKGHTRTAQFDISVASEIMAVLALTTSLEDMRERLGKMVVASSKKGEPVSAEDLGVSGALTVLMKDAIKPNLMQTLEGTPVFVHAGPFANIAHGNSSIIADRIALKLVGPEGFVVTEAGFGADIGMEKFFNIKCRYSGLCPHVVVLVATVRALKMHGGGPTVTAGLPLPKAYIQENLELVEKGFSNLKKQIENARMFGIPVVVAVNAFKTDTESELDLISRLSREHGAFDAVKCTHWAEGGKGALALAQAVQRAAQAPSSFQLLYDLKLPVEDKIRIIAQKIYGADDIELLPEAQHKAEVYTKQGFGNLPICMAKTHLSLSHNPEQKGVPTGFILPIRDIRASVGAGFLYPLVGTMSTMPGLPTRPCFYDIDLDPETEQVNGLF
Protocol: For immunoprecipitation, 1 mg of protein extract was incubated overnight at 4° C. with 10 μl of Dynabeads (either A or G, Life technology) preincubated for 2 hours at 4° C. with 1 μg of BRD4 (ab128874, Abcam), MTHFD1 (A8, Santa Cruz) or GFP (G10362, Life Technology) antibodies.

chromatin-bound BRD4 = target: T2, chromatin-bound BRD4 (Homo sapiens, UniProt O60885); test: Western blot of chromatin associated proteins: BRD4; type: cell-based; settings: HAP1 cells, MTX 1 μM, 2 or 24 hours (FIG. 2C)
T2 construct: Western Blot assay performed on chromatin associated protein samples extracted from HAP1 cells treated with the indicated compounds; endogenous in cells; host or cells: HAP1
Protocol: Cell fractionation and chromatin enrichment was carried out as previously described^29 with some adaptations. Briefly, for 100 million cells, the chromatin enriched pellet was taken up in 250 μl benzonase digestion buffer (15 mM HEPES, 1 mM EDTA, 1 mM EGTA, 0.1% NP40, protease inhibitor cocktail (cOmplete, Roche)) after washing, and sonicated for 120 seconds on the Covaris S220 focused-ultrasonicator with the following settings: Peak Power 140; Duty-Factor 10.0; Cycles/Burst 200. After addition of 0.25 U benzonase and 2.5 μg RNase, the chromatin was incubated for 40 minutes at 4° C. on a rotary shaker. 2× SDS lysis buffer (100 mM HEPES, 4% SDS, 2 mM PMSF and protease inhibitor cocktail (cOmplete, Roche)) was added to the samples in a 1:1 ratio and incubated for 10 minutes at room temperature followed by 5 minutes denaturation at 99° C. After centrifugation at 16,000 g for 10 minutes at room temperature, the supernatant was transferred to a new tube.

[1] = test system: MTHFD1 nuclear localization; test: Nuclear vs cytosol fractionation Western blot in HAP1 cells; type: cell-based, human; settings: MTX 1 μM, 24 hours (FIG. 2D)
Protocol: For Western Blot, proteins were separated on polyacrylamide gels with SDS running buffer (50 mM Tris, 380 mM Glycine, 7 mM SDS) and transferred to nitrocellulose blotting membranes. All membranes were blocked with blocking buffer (5% (m/v) milk powder (BioRad) in TBST (Tris-Buffered Saline with Tween: 50 mM Tris (tris (hydroxymethyl)aminomethane), 150 mM NaCl, 0.05% (v/v) Tween 20, adjusted to pH 7.6). Proteins were probed with antibodies against BRD4 (ab128874, 1:1000, Abcam), Actin (ab16039, 1:1000, Abcam), MTHFD1 (ab70203, Abcam; H120, Santa Cruz; A8, Santa Cruz; all used at 1:1000), GFP (G10362, 1:1000, Life Technology), RCC1 (C-20, 1:1000, Santa Cruz), β-Tubulin (T-4026, 1:1000, Sigma), SHMT1 (ab186130, 1:1000, Abcam) and H2B (ab156197, 1:1000, Abcam) and detected by HRP (horseradish peroxidase) conjugated donkey anti-rabbit IgG antibody (ab16284, 1:5000, Abcam) or donkey anti-mouse IgG antibody (Pierce) and visualized with the Pierce ECL Western Blotting substrate (Amersham), according to the provided protocol.

nuclear folate pool = test: Folate metabolites in nuclear and cytosolic fractions of HAP1 cells (LC-MS/MS); type: cell-based, human; settings: 6 hours, MTX and (S)-JQ1 1 μM, dBET6 0.5 μM (FIG. 19B)
Protocol: In order to quantify folates in the nuclear and cytosolic fractions, 20 millions of HAP1 cells per condition were washed twice with cold PBS, and collected into 50 ml falcon tube by centrifugation for 5 minutes at 280 g and 4° C. Cell lysis was performed on ice in the dark by incubating cell pellets with 1:5 hypotonic lysis buffer for 10 minutes. Nuclei were collected by centrifugation for 5 minutes at 420 g and 4° C. Supernatants (cytosolic fractions) were also collected. Both fractions were immediately snap frozen. For nucleus samples, 10 μL of ISTD mixture was added to nucleus pellet in 1.5 mL Eppendorf tube followed by addition of 145 μL of ice-cold extraction solvent (10 mg/mL ascorbic acid solution in 80% methanol, 20% water, v/v). The samples were vortexed for 10 seconds, afterwards incubated on ice for 3 min and vortexed again for 10 seconds. After centrifugation (14000 rpm, 10 min, 4° C.), the supernatant was collected into HPLC vials. […] An Acquity UHPLC system (Waters) coupled with Xevo TQ-MS (Waters) triple quadrupole mass spectrometer was used for quantitative analysis of metabolites. […] Quantification of all metabolites was performed using MassLynx V4.1 software from Waters. The seven-point linear calibration curves with internal standardization and 1/× weighing was constructed for the quantification.

[2] = test system: panel of six cell lines (four not sensitive to BRD4 inhibition, plus KBM7 and HAP1); test: Cell viability of cancer cell lines, single agents and combination; type: cell-based, human; settings: NOMO-1 the most sensitive to MTX (FIG. 13A, 13B)
Protocol: HEK293T (human embryonic kidney) and HELA (cervix adenocarcinoma) cell lines were cultured in Dulbecco's Modified Eagles Medium (DMEM, Gibco) supplemented with 10% FBS. […] All the mentioned cell lines were incubated in 5% CO2 atmosphere at 37° C.

A549 xenograft = A549 xenograft mouse model; type: in vivo; settings: NOD SCID gamma mice; 30 mg/kg (S)-JQ1 i.p. five times per week and/or 25 mg/kg MTX i.p. twice weekly from day 19 to day 43 (FIG. 21B-D)
Protocol: Mouse xenograft studies were performed as described previously^35. 2×10^6 A549 cells, diluted 1:1 in matrigel, were transplanted subcutaneously into NOD SCID gamma mice. Treatment (30 mg/kg (S)-JQ1 by intraperitoneal injection five times per week, and 25 mg/kg MTX per intraperitoneal injection twice weekly) was started when tumors were established, 19 days post transplantation. Tumor volumes were evaluated twice a week by measuring two perpendicular diameters with calipers. Tumor volume was calculated using the following equation: (width*width*length)/2. Treatment was performed according to an animal licence protocol approved by the Bundesministerium für Wissenschaft and Forschung (BMWF-66.009/0280-II/3b/2012). At day 43 mice were sacrificed and tumors excised and weighted.

WT-KBM7 cells = test: Cell cycle profile by PI staining and FACS (diploidization); type: cell-based, human; settings: treated overnight during one week, PI incorporation and FACS (FIG. 6D)
Protocol: For cell cycle analysis, 1 million cells were fixed with 70% ethanol for 24 hours, washed with PBS/1% BSA/0.1% Tween and incubated with RNase for 30 minutes. Nuclei were stained with 5 μg/ml PI (propidium iodide, Sigma) for 10 minutes prior to FACS analysis (BD FACSCalibur Flow Cytometer).
as §1, with “screen. […] REDS1 was the only clonal cell line with haploid karyotype (see FIG. 6B), also confirmed by metaphase spreads (see FIG. 6C).” for “screen.”

A549 cells = test: Cell viability of A549 cells after MTHFD1 knock-down; type: cell-based; settings: 72 hours (S)-JQ1 (FIG. 21A)
Protocol: KBM7 (human chronic myelogenous leukemia cell lines), MV4-11 (biphenotypic B myelomonocytic leukemia), MEG-01 (human chronic myelogenous leukemia), K-562 (human chronic myelogenous leukemia) and HAP1 (KBM7-derived) cell lines were cultured in Iscove's Modified Dulbecco's Medium (IMDM, Gibco), supplemented with 10% Fetal Bovine Serum (FBS; Gibco). HEK293T (human embryonic kidney) and HELA (cervix adenocarcinoma) cell lines were cultured in Dulbecco's Modified Eagles Medium (DMEM, Gibco) supplemented with 10% FBS. MOLM-13 (human acute monocytic leukemia), NOMO-1 (human acute monocytic leukemia) and A549 (lung carcinoma) cell lines were cultured in RPMI-1640 (Roswell Park Memorial Institute, Gibco) supplemented with 10% FBS. All the mentioned cell lines were incubated in 5% CO2 atmosphere at 37° C.

Structure (SMILES) | Redness after MTX treatment (BRD4; REDS reporter cells, three days of MTX (FIG. 13C)) | effect on BRD4-MTHFD1 interaction in MTHFD1 pull-down (BRD4-MTHFD1 interaction) | BRD4 levels on chromatin after MTX (chromatin-bound BRD4) | MTHFD1 (or SHMT1) nuclear localization [1] | changes in the nuclear folate pool (nuclear folate pool) | sensitivity of cell lines to single treatment (dose response curves) [2] | tumor growth (A549 xenograft) | RFP expression detected by live cell imaging (BRD4; REDS1 cells, 1 μM, 24 hours (FIG. 7B)) | expression of the reporter gene RFP in REDS detected by FACS (BRD4; REDS clones, 0.5 μM (S)-JQ1 (FIG. 6A)) | diploidization of WT-KBM7 (cell cycle profile) (WT-KBM7 cells) | sensitivity to (S)-JQ1 after shRNA for MTHFD1 (A549 cells)
CN(Cc1cnc2nc(N)nc(N)c2n1)c1ccc(C(=O)N[C@@H](CCC(=O)O)C(=O)O)cc1 [MTX, methotrexate] | only weakly increased | unaffected | did not affect BRD4 levels | not impairing MTHFD1 (or SHMT1) nuclear localization | highly correlated characteristic changes specifically in the nuclear folate pool | moderate to low sensitivity | not impaired |  |  |  | 
Cc1sc2c(c1C)C(c1ccc(Cl)cc1)=N[C@@H](CC(=O)OC(C)(C)C)c1nnc(C)n1-2 [(S)-JQ1] |  | unaffected |  |  |  | low sensitivity | not impaired | robustly expressed RFP | rapid and consistent expression of the reporter gene red fluorescent protein (RFP) | induced WT-KBM7 diploidization | increased sensitivity

From patent publication US20190262355A1, “COMBINATION OF A BRD4 INHIBITOR AND AN ANTIFOLATE FOR THE THERAPY OF CANCER” (CeMM-Forschungszentrum für Molekulare Medizin GmbH, priority 2016, published 2019)
